# Measurements: PubChem BioAssay (NCI)
#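 Here, GI50 denotes the concentration required for 50% inhibition of growth. At the TGI there is no net growth.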
# Columns and labels:
# Assay in all cases: inhibition of tumour cell growth, NCI panel, 384-well format
# A498 renal = test system: A498 renal
# A549 NSCLC = test system: A549 NSCLC
# BT-549 breast = test system: BT-549 breast
# CAKI-1 renal = test system: CAKI-1 renal
# CCRF-CEM leukemia = test system: CCRF-CEM leukemia
# COLO 205 colon = test system: COLO 205 colon
# EKVX NSCLC = test system: EKVX NSCLC
# HCT-116 colon = test system: HCT-116 colon
# HCT-15 colon = test system: HCT-15 colon
# HL-60(TB) leukemia = test system: HL-60(TB) leukemia
# HOP-62 NSCLC = test system: HOP-62 NSCLC
# HOP-92 NSCLC = test system: HOP-92 NSCLC
# HS 578T breast = test system: HS 578T breast
# IGROV1 ovarian = test system: IGROV1 ovarian
# K-562 leukemia = test system: K-562 leukemia
# KM12 colon = test system: KM12 colon
# LOX IMVI melanoma = test system: LOX IMVI melanoma
# M14 melanoma = test system: M14 melanoma
# MCF7 breast = test system: MCF7 breast
# MDA-MB-231 breast = test system: MDA-MB-231 breast
# MDA-MB-435 melanoma = test system: MDA-MB-435 melanoma
# NCI-H226 lung = test system: NCI-H226 lung
# NCI-H23 lung = test system: NCI-H23 lung
# NCI-H322M lung = test system: NCI-H322M lung
# NCI-H460 NSCLC = test system: NCI-H460 NSCLC
# NCI-H522 lung = test system: NCI-H522 lung
# NCI/ADR-RES ovarian = test system: NCI/ADR-RES ovarian
# OVCAR-3 ovarian = test system: OVCAR-3 ovarian
# OVCAR-4 ovarian = test system: OVCAR-4 ovarian
# OVCAR-8 ovarian = test system: OVCAR-8 ovarian
# RPMI-8226 leukemia = test system: RPMI-8226 leukemia
# RXF 393 renal = test system: RXF 393 renal
# SF-268 CNS = test system: SF-268 CNS
# SF-295 CNS = test system: SF-295 CNS
# SF-539 CNS = test system: SF-539 CNS
# SK-MEL-2 melanoma = test system: SK-MEL-2 melanoma
# SK-MEL-28 melanoma = test system: SK-MEL-28 melanoma
# SK-MEL-5 melanoma = test system: SK-MEL-5 melanoma
# SK-OV-3 ovarian = test system: SK-OV-3 ovarian
# SN12C renal = test system: SN12C renal
# SNB-75 CNS = test system: SNB-75 CNS
# SR leukemia = test system: SR leukemia
# SW-620 colon = test system: SW-620 colon
# T-47D breast = test system: T-47D breast
# TK-10 renal = test system: TK-10 renal
# U251 glioblastoma = test system: U251 glioblastoma
# UACC-257 melanoma = test system: UACC-257 melanoma
smiles,measurement,setting,value
CC(C)(O)c1cc(Nc2cc(Oc3cn(C4CC4)nc3C3CCOCC3)ccn2)ccn1,GI50,A498 renal,66.8 µM
same,TGI,A498 renal,> 100 µM
same,GI50,A549 NSCLC,89.6 µM
same,TGI,A549 NSCLC,> 100 µM
same,GI50,BT-549 breast,38.7 µM
same,TGI,BT-549 breast,> 100 µM
same,GI50,CAKI-1 renal,68.1 µM
same,TGI,CAKI-1 renal,> 100 µM
same,GI50,CCRF-CEM leukemia,46.7 µM
same,TGI,CCRF-CEM leukemia,> 100 µM
same,GI50,COLO 205 colon,63.2 µM
same,TGI,COLO 205 colon,> 100 µM
same,GI50,EKVX NSCLC,51.6 µM
same,TGI,EKVX NSCLC,> 100 µM
same,GI50,HCT-116 colon,46.6 µM
same,TGI,HCT-116 colon,> 100 µM
same,GI50,HCT-15 colon,> 100 µM
same,TGI,HCT-15 colon,> 100 µM
same,GI50,HL-60(TB) leukemia,15.5 µM
same,TGI,HL-60(TB) leukemia,29.1 µM
same,GI50,HOP-62 NSCLC,> 100 µM
same,TGI,HOP-62 NSCLC,> 100 µM
same,GI50,HOP-92 NSCLC,50.7 µM
same,TGI,HOP-92 NSCLC,> 100 µM
same,GI50,HS 578T breast,37.7 µM
same,TGI,HS 578T breast,> 100 µM
same,GI50,IGROV1 ovarian,> 100 µM
same,TGI,IGROV1 ovarian,> 100 µM
same,GI50,K-562 leukemia,26.3 µM
same,TGI,K-562 leukemia,> 100 µM
same,GI50,KM12 colon,97.1 µM
same,TGI,KM12 colon,> 100 µM
same,GI50,LOX IMVI melanoma,24.9 µM
same,TGI,LOX IMVI melanoma,84.9 µM
same,GI50,M14 melanoma,> 100 µM
same,TGI,M14 melanoma,> 100 µM
same,GI50,MCF7 breast,29.9 µM
same,TGI,MCF7 breast,> 100 µM
same,GI50,MDA-MB-231 breast,> 89 µM
same,TGI,MDA-MB-231 breast,> 100 µM
same,GI50,MDA-MB-435 melanoma,> 100 µM
same,TGI,MDA-MB-435 melanoma,> 100 µM
same,GI50,NCI-H226 lung,> 93.3 µM
same,TGI,NCI-H226 lung,> 100 µM
same,GI50,NCI-H23 lung,23.1 µM
same,TGI,NCI-H23 lung,> 100 µM
same,GI50,NCI-H322M lung,> 100 µM
same,TGI,NCI-H322M lung,> 100 µM
same,GI50,NCI-H460 NSCLC,38.8 µM
same,TGI,NCI-H460 NSCLC,> 100 µM
same,GI50,NCI-H522 lung,> 68.6 µM
same,TGI,NCI-H522 lung,> 100 µM
same,GI50,NCI/ADR-RES ovarian,> 100 µM
same,TGI,NCI/ADR-RES ovarian,> 100 µM
same,GI50,OVCAR-3 ovarian,52.8 µM
same,TGI,OVCAR-3 ovarian,> 100 µM
same,GI50,OVCAR-4 ovarian,> 100 µM
same,TGI,OVCAR-4 ovarian,> 100 µM
same,GI50,OVCAR-8 ovarian,> 100 µM
same,TGI,OVCAR-8 ovarian,> 100 µM
same,GI50,RPMI-8226 leukemia,45.5 µM
same,TGI,RPMI-8226 leukemia,> 91 µM
same,GI50,RXF 393 renal,43.5 µM
same,TGI,RXF 393 renal,> 100 µM
same,GI50,SF-268 CNS,> 100 µM
same,TGI,SF-268 CNS,> 100 µM
same,GI50,SF-295 CNS,> 90 µM
same,TGI,SF-295 CNS,> 100 µM
same,GI50,SF-539 CNS,> 100 µM
same,TGI,SF-539 CNS,> 100 µM
same,GI50,SK-MEL-2 melanoma,> 100 µM
same,TGI,SK-MEL-2 melanoma,> 100 µM
same,GI50,SK-MEL-28 melanoma,> 80.5 µM
same,TGI,SK-MEL-28 melanoma,> 100 µM
same,GI50,SK-MEL-5 melanoma,16.4 µM
same,TGI,SK-MEL-5 melanoma,> 100 µM
same,GI50,SK-OV-3 ovarian,85.1 µM
same,TGI,SK-OV-3 ovarian,> 100 µM
same,GI50,SN12C renal,> 82 µM
same,TGI,SN12C renal,> 100 µM
same,GI50,SNB-75 CNS,> 91.6 µM
same,TGI,SNB-75 CNS,> 100 µM
same,GI50,SR leukemia,24.8 µM
same,TGI,SR leukemia,> 75.9 µM
same,GI50,SW-620 colon,> 91.7 µM
same,TGI,SW-620 colon,> 100 µM
same,GI50,T-47D breast,32.6 µM
same,TGI,T-47D breast,> 100 µM
same,GI50,TK-10 renal,67.2 µM
same,TGI,TK-10 renal,> 100 µM
same,GI50,U251 glioblastoma,> 100 µM
same,TGI,U251 glioblastoma,> 100 µM
same,GI50,UACC-257 melanoma,45 µM
same,TGI,UACC-257 melanoma,> 100 µM
